This note sets out measurements from US20240269139A1, “COMPOUNDS FOR TARGETED PROTEIN DEGRADATION OF KINASES” (DANA-FARBER CANCER INSTITUTE, INC., priority 2020, published 2024).

Assay [1] addresses protein kinases (human kinome) (Homo sapiens, UniProt O00746). It is filed as cell-based. Particulars: NME4 (O00746); experiment wp084.
The test system of assay [2] is extended human kinome (kinase-like proteins). The experiment in a line: Whole cell quantitative proteomics: extended kinome hits. The conditions noted are these: Accession Q16875-4; experiment wp117.
The format of assay [3] is cell-based, H. sapiens. Particulars: MOLT-4, 1 μM, 5 h, 5 μM CB-5083.
The target of assay [4] is protein kinases (human kinome) (Homo sapiens, UniProt Q99640). The class given is cell-based. Particulars: experiment wp131.
protein kinases (human kinome) (Homo sapiens, UniProt Q99640), sequence (Q99640 whole entry): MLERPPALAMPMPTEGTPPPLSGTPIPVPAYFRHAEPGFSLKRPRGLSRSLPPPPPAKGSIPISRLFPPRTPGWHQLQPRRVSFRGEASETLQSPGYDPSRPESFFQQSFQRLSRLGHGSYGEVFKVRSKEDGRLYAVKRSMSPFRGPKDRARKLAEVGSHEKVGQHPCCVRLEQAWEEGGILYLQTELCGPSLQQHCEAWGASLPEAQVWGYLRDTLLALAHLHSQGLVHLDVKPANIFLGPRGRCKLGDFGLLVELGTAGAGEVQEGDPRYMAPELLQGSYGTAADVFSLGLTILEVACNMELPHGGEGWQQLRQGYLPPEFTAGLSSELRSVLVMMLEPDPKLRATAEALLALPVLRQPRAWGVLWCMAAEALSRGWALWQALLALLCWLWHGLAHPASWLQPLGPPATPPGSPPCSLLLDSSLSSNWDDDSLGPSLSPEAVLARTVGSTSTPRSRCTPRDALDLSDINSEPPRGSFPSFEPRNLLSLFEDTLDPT
The next assay deals with MOLT-4 cells. The experiment in a line: RNA sequencing of kinase transcript levels. It is filed as cell-based, H. sapiens. The conditions noted are these: MOLT-4, 1 μM. The method, then: With long treatment times (>8 h), it is difficult to distinguish direct degradation of targets from down-regulation caused by downstream or secondary effects.
MOLT-4 cells were seeded into 24 T25 flasks with 10 mL of culture at 10^6 cells/mL prior to compound treatment. […] Cells were harvested using CellStripper™ Dissociation reagent (Corning®), washed twice with PBS, and followed by snap freezing in liquid nitrogen. Total RNA was isolated from cell pellets using the RNeasy® Mini Kit (Qiagen®) following the manufacturer's directions. For quality control, RNA concentration and rRNA ratio (28S/18S) were measured using an Agilent 2100 Bioanalyzer. Samples were submitted to BGI Group for RNA-seq library preparation and Next Generation Sequencing using the BGISEQ-500 platform producing 50 base-pair single-end reads. Sequencing reads were aligned to the human genome (BSgenome.Hsapiens.UCSC.hg19 Bioconductor package, using splicedAlignment=FALSE) and quantified at the level of genes (TxDb.Hsapiens.UCSC.hg19.knownGene Bioconductor package) using the QuasR package with default parameters (Gaidatzis et al., Bioinformatics 31(7):1130-1132 (2015)). Expressed genes were identified using the edgeR Bioconductor package (Robinson et al., Bioinformatics 26(1):139-140 (2010)).

For assay [5], the target named is extended human kinome (kinase-like proteins) (Homo sapiens, UniProt Q9NYY8). The experiment in a line: Whole cell quantitative proteomics: extended kinome hits. The conditions noted are these: Accession Q9NYY8; experiment wp160; 1 hr.
extended human kinome (kinase-like proteins) (Homo sapiens, UniProt Q9NYY8), sequence (Q9NYY8 whole entry): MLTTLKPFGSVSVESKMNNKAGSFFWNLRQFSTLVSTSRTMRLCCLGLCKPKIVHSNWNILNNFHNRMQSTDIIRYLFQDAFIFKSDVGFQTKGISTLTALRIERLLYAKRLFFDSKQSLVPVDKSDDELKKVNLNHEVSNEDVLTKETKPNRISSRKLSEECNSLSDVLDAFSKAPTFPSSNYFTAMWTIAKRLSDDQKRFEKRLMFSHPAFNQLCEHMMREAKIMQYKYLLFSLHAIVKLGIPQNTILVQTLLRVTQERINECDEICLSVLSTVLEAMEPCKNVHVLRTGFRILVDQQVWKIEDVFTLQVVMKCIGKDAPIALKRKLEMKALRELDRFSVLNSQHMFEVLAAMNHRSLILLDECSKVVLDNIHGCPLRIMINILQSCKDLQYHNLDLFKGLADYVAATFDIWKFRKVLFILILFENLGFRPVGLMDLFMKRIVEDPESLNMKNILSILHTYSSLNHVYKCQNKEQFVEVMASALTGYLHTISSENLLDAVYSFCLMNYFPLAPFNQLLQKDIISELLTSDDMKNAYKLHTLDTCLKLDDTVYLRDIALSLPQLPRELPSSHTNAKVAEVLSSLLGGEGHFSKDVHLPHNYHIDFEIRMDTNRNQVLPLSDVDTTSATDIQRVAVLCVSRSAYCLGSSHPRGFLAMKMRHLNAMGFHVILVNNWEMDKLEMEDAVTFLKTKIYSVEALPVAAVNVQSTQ
In assay [6] the target is protein kinases (human kinome) (Homo sapiens, UniProt P36894). It is filed as cell-based. The conditions noted are these: for logFC: BMPR1A (P36894).
protein kinases (human kinome) (Homo sapiens, UniProt P36894), sequence (P36894 24-532): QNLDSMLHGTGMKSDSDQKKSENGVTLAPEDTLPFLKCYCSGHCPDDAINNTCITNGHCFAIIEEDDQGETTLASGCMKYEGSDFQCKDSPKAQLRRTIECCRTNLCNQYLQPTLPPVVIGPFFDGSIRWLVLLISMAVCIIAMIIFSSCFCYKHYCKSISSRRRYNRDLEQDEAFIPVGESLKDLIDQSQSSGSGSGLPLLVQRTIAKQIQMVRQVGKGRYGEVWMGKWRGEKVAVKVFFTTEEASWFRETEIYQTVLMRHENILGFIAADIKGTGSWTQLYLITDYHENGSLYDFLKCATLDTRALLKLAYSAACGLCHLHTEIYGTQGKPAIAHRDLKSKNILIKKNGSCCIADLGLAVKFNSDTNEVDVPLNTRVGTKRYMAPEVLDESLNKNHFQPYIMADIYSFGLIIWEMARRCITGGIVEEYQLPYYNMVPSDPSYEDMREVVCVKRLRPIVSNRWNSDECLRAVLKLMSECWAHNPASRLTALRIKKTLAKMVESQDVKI
The target in assay [7] is protein kinases (human kinome) (Homo sapiens, UniProt P48730). The class given is cell-based. The conditions noted are these: for logFC CSNK1D: Accession P48730-1, direction down.
protein kinases (human kinome) (Homo sapiens, UniProt P48730), sequence (P48730 whole entry): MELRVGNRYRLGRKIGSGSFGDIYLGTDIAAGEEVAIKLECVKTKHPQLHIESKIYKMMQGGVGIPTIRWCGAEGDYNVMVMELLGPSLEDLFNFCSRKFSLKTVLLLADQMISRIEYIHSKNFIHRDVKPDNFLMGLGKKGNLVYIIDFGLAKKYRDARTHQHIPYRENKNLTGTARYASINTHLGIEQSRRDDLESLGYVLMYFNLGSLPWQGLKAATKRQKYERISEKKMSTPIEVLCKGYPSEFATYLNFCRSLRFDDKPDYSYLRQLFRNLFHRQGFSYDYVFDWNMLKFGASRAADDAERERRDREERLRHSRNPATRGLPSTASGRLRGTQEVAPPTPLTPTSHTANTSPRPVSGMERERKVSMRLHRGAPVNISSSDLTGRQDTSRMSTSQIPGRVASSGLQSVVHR
The target in assay [8] is T1, protein kinases (human kinome) (Homo sapiens, UniProt Q9Y616).
T1 sequence (Q9Y616 1-596): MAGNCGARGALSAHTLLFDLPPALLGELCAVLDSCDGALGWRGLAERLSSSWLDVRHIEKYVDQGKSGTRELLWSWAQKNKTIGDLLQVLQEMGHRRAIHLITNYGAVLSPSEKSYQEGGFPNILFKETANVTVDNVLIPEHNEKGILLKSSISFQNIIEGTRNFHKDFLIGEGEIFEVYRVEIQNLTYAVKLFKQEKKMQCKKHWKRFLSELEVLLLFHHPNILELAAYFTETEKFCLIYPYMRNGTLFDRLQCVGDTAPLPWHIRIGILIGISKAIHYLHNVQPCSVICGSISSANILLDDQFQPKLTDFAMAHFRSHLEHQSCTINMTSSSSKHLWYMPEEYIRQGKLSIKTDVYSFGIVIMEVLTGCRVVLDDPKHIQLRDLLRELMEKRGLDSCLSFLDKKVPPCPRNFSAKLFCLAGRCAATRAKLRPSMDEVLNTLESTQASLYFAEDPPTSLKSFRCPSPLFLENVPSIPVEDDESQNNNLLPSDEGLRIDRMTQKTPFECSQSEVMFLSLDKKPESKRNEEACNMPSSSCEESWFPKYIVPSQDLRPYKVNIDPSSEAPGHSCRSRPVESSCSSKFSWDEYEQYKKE
The class given is cell-based. Particulars: experiment wp146; for logFC: IRAK3 (Q9Y616).

The target in assay [9] is protein kinases (human kinome) (Homo sapiens, UniProt Q8NFU5). It is filed as cell-based. Particulars: IPMK (Q8NFU5).
protein kinases (human kinome) (Homo sapiens, UniProt Q8NFU5), sequence (Q8NFU5 whole entry): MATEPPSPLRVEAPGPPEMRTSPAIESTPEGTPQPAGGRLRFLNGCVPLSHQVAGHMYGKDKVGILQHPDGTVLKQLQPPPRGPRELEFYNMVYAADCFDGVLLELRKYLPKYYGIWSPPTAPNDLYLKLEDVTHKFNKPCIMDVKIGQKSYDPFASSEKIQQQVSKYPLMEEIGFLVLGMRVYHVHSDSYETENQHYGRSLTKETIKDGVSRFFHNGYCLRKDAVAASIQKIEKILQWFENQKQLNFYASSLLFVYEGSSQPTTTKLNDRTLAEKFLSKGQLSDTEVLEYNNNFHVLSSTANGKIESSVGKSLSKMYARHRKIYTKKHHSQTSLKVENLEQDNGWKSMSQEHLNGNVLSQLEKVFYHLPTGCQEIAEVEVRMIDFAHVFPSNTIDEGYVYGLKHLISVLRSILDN

Each structure is given as a SMILES string. Where two headings read alike, the source gives them in different places.

protein kinases (human kinome) (Homo sapiens, UniProt O00746), sequence (O00746 29-187): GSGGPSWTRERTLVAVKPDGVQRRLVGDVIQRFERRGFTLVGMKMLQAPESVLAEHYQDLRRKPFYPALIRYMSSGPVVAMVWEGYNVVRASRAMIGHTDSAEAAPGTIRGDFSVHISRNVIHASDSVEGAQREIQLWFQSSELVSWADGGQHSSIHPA

In assay [1], `CC(=O)c1c(C)c2cnc(Nc3ccc(N4CCN(CCOCCOCCOCCNC(=O)COc5cccc6c5C(=O)N(C5CCC(=O)NC5=O)C6=O)CC4)cn3)nc2n(C2CCCC2)c1=O` (centres unmarked) [BSJ.03.123] displayed a logFC of −0.3681.
The same measure, in the same setting: then `CN(C)C(=O)c1cc2cnc(Nc3ccc(N4CCN(CCCCNC(=O)COc5cccc6c5C(=O)N(C5CCC(=O)NC5=O)C6=O)CC4)cn3)nc2n1C1CCCC1` (centres unmarked) [BSJ.04.132], with −0.4467.
In the case of `Cc1ccc(NC(=O)c2cccc(C(F)(F)F)c2)cc1N1Cc2cnc(Nc3ccc(N4CCN(Cc5cn(CCCCCOc6cccc7c6C(=O)N(C6CCC(=O)NC6=O)C7=O)nn5)CC4)nc3)nc2N(C)C1=O` (centres unmarked) [DB0646, N-(3-(7-((6-(4-((1-(5-((2-(2,6-Dioxopiperidin-3-yl)-1,3-dioxoisoindolin-4-yl)oxy)pentyl)-1H-1,2,3-triazol-4-yl)methyl)piperazin-1-v)pyridin-3-yl)amino)-1-methyl-2-oxo-1,4-dihydropyrimido[4,5-d]pyrimidin-3(2H)-yl)-4-methylphenyl)-3-(trifluoromethyl)benzamide], the “logFC PFKFB3” value in [2] is recorded as −0.377. Further, the “CSK degradation rescue on p97 inhibition” value in [3] is “very little degradation rescue”.
As to `Cn1c(=O)c(-c2c(Cl)cccc2Cl)cc2cnc(Nc3ccc(OCCNC(=O)CCCCCCNC(=O)COc4cccc5c4C(=O)N(C4CCC(=O)NC4=O)C5=O)cc3)nc21` (centres unmarked) [SB1.G.192.1], the “logFC PKMYT1 (Q99640)” value in assay [4] (direction of change down) was −0.7301. For the same compound, the “logFC PKMYT1” value in assay [4] (protein PKMYT1 (Q99640), down) is reported as −0.7301.
In the case of `CC(C)S(=O)(=O)c1ccccc1Nc1nc(Nc2ccc(N3CCN(CCOCCNC(=O)CNc4cccc5c4C(=O)N(C4CCC(=O)NC4=O)C5=O)CC3)cc2)ncc1Cl` (centres unmarked) [SK-3-91], the transcript levels entry in the assay with MOLT-4 cells (8- and 12-h time points) is recorded as “complete transcriptional collapse”; in the assay with MOLT-4 cells (up until the 4-h time point) it was “largely unchanged”.
Consider `CC(C)S(=O)(=O)c1ccccc1Nc1nc(Nc2ccc(N3CCN(CCOCCNC(=O)CNc4cccc5c4C(=O)N(C4CCC(=O)NC4=O)C5=O)CC3)cc2)ncc1Cl` (centres unmarked) [SK.3.91], for which the “logFC FASTKD2” value in assay [5] is on record as −1. In addition, the logFC is −0.4077 in [6] (experiment wp105); −1.103 in [6] (experiment wp107); −0.8007 in assay [6] (experiment wp133, 4 hr). Besides, the “logFC of BMPR1A (P36894)” value is listed as −1.103 in [6] (Experiment wp107); −0.4077 in assay [6] (experiment wp105); −0.8007 in assay [6] (experiment wp133, 4 hr). In addition, the “logFC CSNK1D” value in assay [7] (experiment wp133, 4 hr) is listed as −0.4585. Moreover, the “logFC of CSNK1D (P48730-1)” value in assay [7] (experiment wp133, 4 hr) is on record as −0.4585.
`CC(C)S(=O)(=O)c1ccccc1Nc1nc(Nc2ccc(N3CCN(CCOCCOCCNC(=O)CNc4cccc5c4C(=O)N(C4CCC(=O)NC4=O)C5=O)CC3)cc2)ncc1Cl` (centres unmarked) [TL12.186]: in assay [6] (experiment wp131), the logFC is listed as −0.8334 and the “logFC of BMPR1A (P36894)” value was −0.8334. Moreover, in assay [6] (experiment wp137), the logFC is on record as −0.6566 and the “logFC of BMPR1A (P36894)” value was −0.6566. Further, in assay [7] (experiment wp131), the “logFC CSNK1D” value was −0.3551 and the “logFC of CSNK1D (P48730-1)” value is −0.3551.
Take `NC(=O)c1c(F)cccc1Nc1nc(Nc2ccc(S(=O)(=O)NCCOCCOCCOCCOCCNc3cccc4c3C(=O)N(C3CCC(=O)NC3=O)C4=O)cc2)ncc1Br` (centres unmarked) [TMX.02.138]: in [8], the logFC was −1.544 and the “logFC of IRAK3 (Q9Y616)” value is on record as −1.544.
Regarding `Cc1cc(Nc2ncc(Br)c(Nc3cccc(F)c3C(N)=O)n2)ccc1S(=O)(=O)NCCOCCOCCOCCOCCNc1cccc2c1C(=O)N(C1CCC(=O)NC1=O)C2=O` (centres unmarked) [TMX.02.174], in [8], the logFC is listed as −1.343 and the “logFC of IRAK3 (Q9Y616)” value is recorded as −1.343.
On to `Nc1ncc(-c2ccc(S(=O)(=O)N(CCCNC(=O)CCOCCOCCOCCOCCOCCNc3cccc4c3C(=O)N(C3CCC(=O)NC3=O)C4=O)C3CC3)cc2)cc1-c1ccc2c(c1)CCNC2=O` (centres unmarked) [WH.10417.099], for which the logFC in [9] (experiment wp056) was −0.5845; in assay [9] (experiment wp107) it was −0.4154.
